What was measured:
[1] = target: T1, Phosphatidylinositol 4,5-bisphosphate 3-kinase catalytic subunit delta isoform (Homo sapiens, UniProt O00329); assay: Scintillation Proximity Assay
T1 sequence (O00329 whole entry): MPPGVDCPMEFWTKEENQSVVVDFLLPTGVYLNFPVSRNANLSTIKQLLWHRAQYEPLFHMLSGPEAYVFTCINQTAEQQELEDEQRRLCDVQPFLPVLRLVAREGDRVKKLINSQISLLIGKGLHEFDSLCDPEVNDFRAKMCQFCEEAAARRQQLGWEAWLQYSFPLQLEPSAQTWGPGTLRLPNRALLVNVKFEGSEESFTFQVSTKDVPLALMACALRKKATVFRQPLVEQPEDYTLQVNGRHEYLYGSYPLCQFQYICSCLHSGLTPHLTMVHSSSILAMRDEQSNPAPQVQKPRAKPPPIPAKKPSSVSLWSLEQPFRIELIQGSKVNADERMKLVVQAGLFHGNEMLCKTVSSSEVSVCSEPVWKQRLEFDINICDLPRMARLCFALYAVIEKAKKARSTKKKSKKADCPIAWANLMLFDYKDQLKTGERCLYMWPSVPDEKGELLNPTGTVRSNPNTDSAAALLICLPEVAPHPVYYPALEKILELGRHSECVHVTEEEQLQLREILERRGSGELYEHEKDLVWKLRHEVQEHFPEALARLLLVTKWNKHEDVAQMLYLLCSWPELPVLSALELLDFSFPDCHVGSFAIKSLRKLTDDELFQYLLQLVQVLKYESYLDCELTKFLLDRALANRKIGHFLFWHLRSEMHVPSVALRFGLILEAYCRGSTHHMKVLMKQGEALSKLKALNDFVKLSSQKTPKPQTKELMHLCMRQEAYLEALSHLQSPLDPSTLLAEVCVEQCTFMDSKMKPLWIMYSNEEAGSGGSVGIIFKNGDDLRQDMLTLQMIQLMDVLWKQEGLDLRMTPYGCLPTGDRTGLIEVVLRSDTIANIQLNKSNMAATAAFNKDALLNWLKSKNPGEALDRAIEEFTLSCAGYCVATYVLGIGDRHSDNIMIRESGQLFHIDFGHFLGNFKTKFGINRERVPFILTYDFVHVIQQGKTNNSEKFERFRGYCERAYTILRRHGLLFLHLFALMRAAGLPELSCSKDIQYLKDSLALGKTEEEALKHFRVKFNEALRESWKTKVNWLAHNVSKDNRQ
Text: PI3Kδ: [γ-33P]ATP (10 mCi/mL) and Wheat Germ Agglutinin (WGA) YSi SPA Scintillation Beads was purchased from PerkinElmer (Waltham, Mass.). Lipid kinase substrate, D-myo-Phosphatidylinositol 4,5-bisphosphate (PtdIns(4,5)P2)D (+)-sn-1,2-di-O-octanoylglyceryl, 3-O-phospho linked (PIP2), CAS 204858-53-7, was purchased from Echelon Biosciences (Salt Lake City, Utah). PI3Kδ (p110δ/p85α) Recombinant Human Protein was purchased from Eurofins. ATP, MgCl2, DTT, EDTA, MOPS and CHAPS were purchased from SigmaAldrich.The kinase reaction was conducted in polystyrene 384-well Greiner Bio-one white plate from Thermo Fisher Scientific in a final volume of 25 μL. Inhibitors were first diluted serially in DMSO and added to the plate wells before the addition of other reaction components. The final concentration of DMSO in the assay was 2%. The PI3Kδ assay was carried out at room temperature in 20 mM MOPS, pH 6.7, 10 mM MgCl2, 5 mM DTT and CHAPS 0.03%. Reactions were initiated by the addition of ATP, the final reaction mixture consisted of 20 μM PIP2, 2 μM ATP, 0.5 μCi [γ-33P] ATP, 3.4 nM PI3Kδ. Reactions were incubated for 120 min and terminated by the addition of 40 μL SPA beads suspended in quench buffer: 163 mM potassium phosphate pH 7.8, 20% glycerol, 25 mM EDTA. The final concentration of SPA beads is 1.0 mg/mL. After the plate sealing, plates were shaken overnight at room temperature and centrifuged at 1500 rpm for 10 min, the radioactivity of the product was determined by scintillation counting on Topcount.

[2] = target: Phosphatidylinositol 4,5-bisphosphate 3-kinase catalytic subunit gamma isoform (Homo sapiens, UniProt P48736); assay: Scintillation Proximity Assay
Chain of Phosphatidylinositol 4,5-bisphosphate 3-kinase catalytic subunit gamma isoform (P48736 whole entry, canonical isoform): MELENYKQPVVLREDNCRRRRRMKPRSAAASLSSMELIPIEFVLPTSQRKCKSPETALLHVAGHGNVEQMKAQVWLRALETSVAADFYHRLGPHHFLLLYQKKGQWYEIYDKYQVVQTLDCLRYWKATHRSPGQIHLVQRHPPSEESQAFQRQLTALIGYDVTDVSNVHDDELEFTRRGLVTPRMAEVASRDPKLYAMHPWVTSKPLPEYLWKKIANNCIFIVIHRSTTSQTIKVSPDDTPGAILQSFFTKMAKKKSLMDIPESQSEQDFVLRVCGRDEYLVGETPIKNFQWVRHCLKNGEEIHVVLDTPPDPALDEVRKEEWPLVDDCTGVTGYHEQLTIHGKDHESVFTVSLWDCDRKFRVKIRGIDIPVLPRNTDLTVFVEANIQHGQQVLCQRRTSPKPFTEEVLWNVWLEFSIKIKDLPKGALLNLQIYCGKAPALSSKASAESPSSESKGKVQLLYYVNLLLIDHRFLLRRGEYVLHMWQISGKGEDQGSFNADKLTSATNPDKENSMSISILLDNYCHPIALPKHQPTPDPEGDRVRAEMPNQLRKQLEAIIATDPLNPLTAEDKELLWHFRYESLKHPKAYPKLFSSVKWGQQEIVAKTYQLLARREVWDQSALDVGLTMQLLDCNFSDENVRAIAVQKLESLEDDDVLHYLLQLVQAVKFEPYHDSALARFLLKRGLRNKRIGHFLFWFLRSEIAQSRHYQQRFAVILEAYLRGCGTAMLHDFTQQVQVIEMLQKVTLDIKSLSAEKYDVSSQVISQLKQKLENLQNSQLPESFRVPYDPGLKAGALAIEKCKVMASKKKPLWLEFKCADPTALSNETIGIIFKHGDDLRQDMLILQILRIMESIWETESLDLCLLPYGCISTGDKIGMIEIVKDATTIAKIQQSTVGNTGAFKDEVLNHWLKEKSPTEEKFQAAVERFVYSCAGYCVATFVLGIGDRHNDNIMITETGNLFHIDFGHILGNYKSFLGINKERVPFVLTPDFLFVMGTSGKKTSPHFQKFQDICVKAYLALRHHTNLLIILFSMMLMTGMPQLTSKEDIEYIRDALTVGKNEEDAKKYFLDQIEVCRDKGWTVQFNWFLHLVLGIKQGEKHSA
Text: PI3K-γ: [γ-33P]ATP (10 mCi/mL) and Wheat Germ Agglutinin (WGA) YSi SPA Scintillation Beads was purchased from PerkinElmer (Waltham, Mass.). Lipid kinase substrate, D-myo-Phosphatidylinositol 4,5-bisphosphate (PtdIns(4,5)P2)D (+)-sn-1,2-di-O-octanoylglyceryl, 3-O-phospho linked (PIP2), CAS 204858-53-7, was purchased from Echelon Biosciences (Salt Lake City, Utah). PI3Kγ (p110γ) Recombinant Human Protein was purchased from Life technology (Grand Island, N.Y.). ATP, MgCl2, DTT, EDTA, MOPS and CHAPS were purchased from SigmaAldrich (St. Louis, Mo.).The kinase reaction was conducted in polystyrene 384-well Greiner Bio-one white plate from Thermo Fisher Scientific in a final volume of 25 μL. Inhibitors were first diluted serially in DMSO and added to the plate wells before the addition of other reaction components. The final concentration of DMSO in the assay was 2%. The PI3Kγ assay was carried out at room temperature in 20 mM MOPS, pH 6.7, 10 mM MgCl2, 5 mM DTT and CHAPS 0.03%. Reactions were initiated by the addition of ATP, the final reaction mixture consisted of 20 μM PIP2, 2 μM ATP, 0.5 μCi [γ-33P] ATP, 13 nM PI3Kγ. Reactions were incubated for 120 min and terminated by the addition of 40 μL SPA beads suspended in quench buffer: 163 mM potassium phosphate pH 7.8, 20% glycerol, 25 mM EDTA. The final concentration of SPA beads is 1.0 mg/mL. After the plate sealing, plates were shaken overnight at room temperature and centrifuged at 1500 rpm for 10 min, the radioactivity of the product was determined by scintillation counting on Topcount (Perkin-Elmer).

| Compound | IC50 [1] [nM] | IC50 [2] [nM] |
| --- | --- | --- |
| Cc1ccc(C(C)C(F)(F)F)cc1-c1cnc2c(N)nc(-c3cnn(C)c3)cn12 (stereo unspecified) [US10738057, Example 69] | < 100 | < 100 |
| Cc1ncc(-c2cn3c(-c4cc(C(C)C(F)(F)F)ccc4C)cnc3c(N)n2)s1 (stereo unspecified) [US10738057, Example 70] | < 100 | < 100 |
| Cc1ccc(C(C)C(F)(F)F)cc1-c1cnc2c(N)nc(-c3cnco3)cn12 (stereo unspecified) [US10738057, Example 71] | < 100 | < 100 |

From BindingDB's records for patent US10738057 (Incyte Corporation, 2020)
